Results reported in ChEMBL document CHEMBL4004867, “Novel antioxidants' synthesis and their anti-oxidative activity through activating Nrf2 signaling pathway” (2017).
Calls of active or inactive are those of the source. The calls are words filed in the database; no cut-off is given here.

What was measured:
PC-12 [1] = assay: Cytoprotective activity against H2O2-induced oxidative damage in rat PC12 cells assessed as necrotic cells at 10 uM preincubated for 24 hrs followed by H2O2 addition measured after 24 hrs by annexin V-FITC/propidium iodide staining-based flow cytometric method (reference value: 3.47%); assay type: functional
PC-12 [2] = assay: Cytoprotective activity against H2O2-induced oxidative damage in rat PC12 cells assessed as late apoptotic cells at 10 uM preincubated for 24 hrs followed by annexin V-FITC/propidium iodide staining-based flow cytometric method (reference value: 10.7%); assay type: functional
PC-12 [3] = assay: Cytoprotective activity against H2O2-induced oxidative damage in rat PC12 cells assessed as viable cells at 10 uM preincubated for 24 hrs followed by H2O2 addition measured after 24 hrs by annexin V-FITC/propidium iodide staining-based flow cytometric method (reference value: 85.2%); assay type: functional; details: read-out: Activity
PC-12 [4] = assay: Cytoprotective activity against H2O2-induced oxidative damage in rat PC12 cells assessed as early apoptotic cells at 10 uM preincubated for 24 hrs followed by H2O2 addition measured after 24 hrs by annexin V-FITC/propidium iodide staining-based flow cytometric method (reference value: 0.558%); assay type: functional
PC-12 [5] = assay: Cytoprotective activity against H2O2-induced oxidative damage in rat PC12 cells assessed as necrotic cells at 2.5 uM preincubated for 24 hrs followed by H2O2 addition measured after 24 hrs by annexin V-FITC/propidium iodide staining-based flow cytometric method (reference value: 3.47%); assay type: functional
[6] = molecular target: T1, Nuclear factor erythroid 2-related factor 2 (Rattus norvegicus) (UniProt O54968); assay: Induction of Nrf2 nuclear translocation in rat PC12 cells at 10 uM after 6 hrs by DAPI staining-based immunofluorescence method; assay type: cell-based
T1 sequence (whole entry): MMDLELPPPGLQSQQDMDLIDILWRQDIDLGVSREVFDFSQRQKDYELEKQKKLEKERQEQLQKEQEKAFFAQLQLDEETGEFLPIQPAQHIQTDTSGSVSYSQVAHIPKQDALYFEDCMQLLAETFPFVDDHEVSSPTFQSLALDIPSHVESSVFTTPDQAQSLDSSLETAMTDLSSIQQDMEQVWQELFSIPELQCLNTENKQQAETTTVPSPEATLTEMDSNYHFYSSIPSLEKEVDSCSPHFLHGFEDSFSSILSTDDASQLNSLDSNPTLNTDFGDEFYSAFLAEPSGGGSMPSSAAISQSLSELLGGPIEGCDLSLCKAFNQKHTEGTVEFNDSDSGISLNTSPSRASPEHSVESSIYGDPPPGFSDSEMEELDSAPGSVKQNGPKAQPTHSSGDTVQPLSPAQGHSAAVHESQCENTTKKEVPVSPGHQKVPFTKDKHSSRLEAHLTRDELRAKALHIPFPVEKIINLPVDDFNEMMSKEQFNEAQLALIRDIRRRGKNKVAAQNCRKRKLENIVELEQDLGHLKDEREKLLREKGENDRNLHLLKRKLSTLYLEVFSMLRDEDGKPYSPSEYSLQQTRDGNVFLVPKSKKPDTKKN

[7] = molecular target: T1, Nuclear factor erythroid 2-related factor 2 (Rattus norvegicus); assay: Induction of Nrf2 activity in rat PC12 cells assessed as upregulation of GCLC levels after 24 hrs by Western blot method; assay type: cell-based
PC-12 [8] = assay: Cytoprotective activity against H2O2-induced oxidative damage in rat PC12 cells assessed as increase in cell viability preincubated for 24 hrs followed by H2O2 addition measured after 24 hrs by MTT assay; assay type: functional, cell-based
PC-12 [9] = assay: Cytoprotective activity against H2O2-induced oxidative damage in rat PC12 cells assessed as early apoptotic cells at 2.5 uM preincubated for 24 hrs followed by H2O2 addition measured after 24 hrs by annexin V-FITC/propidium iodide staining-based flow cytometric method (reference value: 0.558%); assay type: functional
PC-12 [10] = assay: Cytoprotective activity against H2O2-induced oxidative damage in rat PC12 cells assessed as late apoptotic cells at 5 uM preincubated for 24 hrs followed by H2O2 addition measured after 24 hrs by annexin V-FITC/propidium iodide staining-based flow cytometric method (reference value: 10.7%); assay type: functional
PC-12 [11] = assay: Cytoprotective activity against H2O2-induced oxidative damage in rat PC12 cells assessed as viable cells at 5 uM preincubated for 24 hrs followed by H2O2 addition measured after 24 hrs by annexin V-FITC/propidium iodide staining-based flow cytometric method (reference value: 85.2%); assay type: functional; details: read-out: Activity
[12] = Antioxidant activity assessed as DPPH radical scavenging activity relative to edaravone; assay type: functional
PC-12 [13] = assay: Cytoprotective activity against H2O2-induced oxidative damage in rat PC12 cells preincubated for 24 hrs followed by H2O2 addition measured after 24 hrs by annexin V-FITC/propidium iodide staining-based flow cytometric method; assay type: functional, cell-based
PC-12 [14] = assay: Cytoprotective activity against H2O2-induced oxidative damage in rat PC12 cells assessed as increase in cell viability at 10 uM preincubated for 24 hrs followed by H2O2 addition measured after 24 hrs in presence of GCLC inhibitor BSO by MTT assay; assay type: functional, cell-based
[15] = molecular target: T1, Nuclear factor erythroid 2-related factor 2 (Rattus norvegicus); assay: Induction of Nrf2 activity in rat PC12 cells assessed as upregulation of GCLC mRNA levels at 2.5 to 10 uM after 24 hrs by RT-PCR method; assay type: cell-based
[16] = Antioxidant activity assessed as DPPH radical scavenging activity relative to tBHQ; assay type: functional
PC-12 [17] = assay: Cytoprotective activity against H2O2-induced oxidative damage in rat PC12 cells assessed as viable cells at 2.5 uM preincubated for 24 hrs followed by H2O2 addition measured after 24 hrs by annexin V-FITC/propidium iodide staining-based flow cytometric method (reference value: 85.2%); assay type: functional; details: read-out: Activity
PC-12 [18] = assay: Cytoprotective activity against H2O2-induced oxidative damage in rat PC12 cells assessed as late apoptotic cells at 2.5 uM preincubated for 24 hrs followed by H2O2 addition measured after 24 hrs by annexin V-FITC/propidium iodide staining-based flow cytometric method (reference value: 10.7%); assay type: functional
PC-12 [19] = assay: Cytoprotective activity against H2O2-induced oxidative damage in rat PC12 cells assessed as necrotic cells at 5 uM preincubated for 24 hrs followed by H2O2 addition measured after 24 hrs by annexin V-FITC/propidium iodide staining-based flow cytometric method (reference value: 3.47%); assay type: functional
PC-12 [20] = assay: Cytoprotective activity against H2O2-induced oxidative damage in rat PC12 cells assessed as early apoptotic cells at 5 uM preincubated for 24 hrs followed by H2O2 addition measured after 24 hrs by annexin V-FITC/propidium iodide staining-based flow cytometric method (reference value: 0.558%); assay type: functional

## CC(C)(C)c1cc(O)ccc1O [E319]
PC-12 [1]
  Activity: 0.882%
PC-12 [2]
  Activity: 0.882%
PC-12 [3]
  viability at 10 µM: 97.1%
PC-12 [4]
  Activity: 1.1%

## CC1=NN(c2ccccc2)C(=O)C1 [EDARAVONE]
PC-12 [1]
  Activity: 1.85%
PC-12 [2]
  Activity: 1.92%
PC-12 [3]
  viability at 10 µM: 95.1%
PC-12 [4]
  Activity: 1.17%

## CCC(=O)N1NC(c2cc(OC)c(OC)c(OC)c2)C2=C1CCC2 (stereo not drawn)
PC-12 [5]
  Activity: 1.69%
PC-12 [1]
  Activity: 2.96%
[6]
  Activity: Active
[7]
  Activity: Dose-dependent effect
PC-12 [8]
  Activity: Dose-dependent effect
PC-12 [9]
  Activity: 1.46%
PC-12 [10]
  Activity: 2.44%
PC-12 [11]
  viability at 5 µM: 93.5%
[12]
  fold change (FC): 0.5
PC-12 [2]
  Activity: 2.27%
PC-12 [3]
  viability at 10 µM: 93.1%
PC-12 [13]
  Activity: Dose-dependent effect
PC-12 [14]
  Activity: inactive
[15]
  Activity: Active
[16]
  fold change (FC): 0.5
PC-12 [17]
  viability at 2.5 µM: 94.2%
PC-12 [4]
  Activity: 1.64%
PC-12 [18]
  Activity: 2.65%
PC-12 [19]
  Activity: 1.46%
PC-12 [20]
  Activity: 2.64%
